Measured values reported in patent US6623741B1, “Methods and compositions for inhibition of membrane fusion-associated events including RSV transmission” (Trimeris, Inc., priority 2000, dated 2003).

Assay: Analytical ultracentrifugation (sedimentation equilibrium)
Assay type: physicochemical
Description: Analytical Ultracentrifugation:
Sedimentation equilibrium experiments were performed on a Beckman Optima XL-A analytical ultracentrifuge at 4° C. Six-channel cells (12 mm optical path length) were used with an An-60 Ti rotor operated at 13,500, 16,000, 17,000, 20,000, 21,000, 24,000, 25,000, 27,500, 30,000 and 35,000 rpm. The cell radii were scanned using 0.001 cm steps with 10 averages/scan. Data were analyzed using Beckman XLA data analysis software (version 3.01 for Windows) and Beckman-Origin software (version 3.78 for Windows). […] The partial specific volumes were held constant for all models considered.
Single data files were normalized to 270 nm absorbance values using Beer's Law. The data obtained with solutions containing the DP107-like peptides were then analyzed using a single ideal species model to determine a weight-averaged molecular weight (Mw). Diagnostic plots of Mw/Mw0 vs. rpm/rpm0 and Mw vs. radial concentration were used to test for sample homogeneity as described, e.g., by McRorie & Voelker, 1993, Self-Associating Systems in the Analytical Ultracentrifuge, Beckman Instruments, Inc., Palo Alto; and Yphantis et al., 1978, in Physical Aspects of Protein Interactions: Proceedings of the Symposium on Protein Interactions, American Chemical Society Meeting, Catsimpoolas, Ed., pp. 275-303, Elsevier, Miami Beach, Fla. When systematic residuals or a Mw higher than the monomer molecular weight indicated the presence of self-association, associative models such as monomer/trimer, monomer/tetramer and monomer/dimer/tetrarner were investigated. The suitability of a particular model (i.e., the goodness of fit) was judged by the trends observed in the residuals (Johnson & Straume, 1994, in Modern Analytical Ultracentrifugation, Schuster et al., eds., pp. 37-65, Birkhauser, Boston). Using the associative model which produced random residuals when fitting individual data files, a simultaneous, global, weighted fit of multiple data files (up to nine files with different concentrations and speeds) was performed to determine the association constant and 95% confidence intervals. To convert the resulting association constant from absorbance units to concentration units, it was assumed that the absorbance of the n-mer is n times that of the monomer.
The data obtained with DP107-like/DP178-like peptide mixtures were first analyzed with a single ideal species model. When a systematic trend in residuals coupled with the Mw not equal to a precise multimer of HR1+HR2 were obtained, and alternate fitting scheme was explored. For this approach, it was assumed that the solution contained fully associated HR1-HR2 complexes and unassociated DP107-like and DP178-like peptides. The mixtures were analyzed with a two-ideal species model, choosing one species to have a molecular weight of either 28,269 Da (corresponding to three DP107-like plus three DP178-like peptides) or […] (corresponding to four DP107-like plus four DP178-like peptides).

CC[C@H](C)[C@H](NC(=O)[C@H](Cc1ccccc1)NC(=O)[C@H](C)NC(=O)[C@H](CC(C)C)NC(=O)[C@H](CO)NC(=O)[C@H](CCC(N)=O)NC(=O)[C@H](CC(N)=O)NC(=O)[C@@H](NC(=O)[C@H](CCCCN)NC(=O)[C@H](CCC(=O)O)NC(=O)[C@H](CC(N)=O)NC(=O)[C@@H](NC(=O)[C@H](CCC(N)=O)NC(=O)[C@H](CO)NC(=O)[C@@H](NC(=O)[C@H](CO)NC(=O)[C@H](C)NC(=O)[C@H](CC(=O)O)NC(=O)[C@H](Cc1ccccc1)NC(=O)[C@H](CCC(=O)O)NC(=O)[C@H](CC(=O)O)NC(=O)[C@H](CO)NC(=O)[C@@H]1CCCN1C(=O)[C@H](Cc1ccccc1)NC(=O)[C@@H](NC(C)=O)C(C)C)[C@@H](C)CC)C(C)C)[C@@H](C)CC)C(=O)N[C@@H](CCCNC(=N)N)C(=O)N[C@@H](CCCCN)C(=O)N[C@@H](CO)C(=O)N[C@@H](CC(=O)O)C(=O)N[C@@H](CCC(=O)O)C(=O)N[C@@H](CC(C)C)C(=O)N[C@@H](CC(C)C)C(=O)N[C@@H](Cc1c[nH]cn1)C(=O)N[C@@H](CC(N)=O)C(=O)N[C@H](C(N)=O)C(C)C [Peptide T112]
oligomerization state in solution (in words): behaves as a monomer
Mw value (50 μM, 25,000, 30,000 and 35,000 rpm): 3,984 Da
